Results reported in patent US20230293517A1, “ANTAGONIST COMPOUNDS” (AdoRx Therapeutics Limited, priority 2020, published 2023).

Columns and labels:
[1] = target: human Adenosine A2a receptor (Homo sapiens (Human), UniProt P29274); assay: Adenosine receptor TR-FRET binding assay (A2a); conditions: inhibition of binding of 100 nM CA200645, CHO cell membranes
Procedure, shortened: (§1)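 Compounds were serially diluted 1:3 in DMSO, then incubated with CHO membranes bearing Tb-tagged human receptor plus CA200645 (A2b 30 nM; A1, A2a, A3 100 nM) for 2 h at room temperature. Time-resolved FRET was read, non-specific binding subtracted using 10 μM XAC, and Ki calculated.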

[2] = tested on: CD8+T cells in human whole blood; assay: Measurement of pCREB in CD8+T cells in human whole blood; assay type: cell-based; conditions: 3 μM NECA, rolipram
Method: Biological Example—Measurement of pCREB in CD8+T Cells in Human Whole Blood
Heparinised human whole blood was pre-incubated at 37° C. with serial dilutions of A2a antagonists for 20 min. and the phosphodiesterase inhibitor rolipram to amplify the pCREB response. The adenosine receptor agonist NECA is then added at a final concentration of 3 μM and following a 60 min incubation the blood is fixed and red blood cells lysed. White blood cells are isolated, permeabilized and stained with directly conjugated fluorescent antibodies to phospho-CREB (Alexa Fluor 488) and CD8 (Alexa Fluor 647) and the level of phospho-CREB in CD8+T cells is measured by FACS using a BD Accuri C6 Flow Cytometer.

[3] = target: human Adenosine A2b receptor (Homo sapiens (Human), UniProt P29275); assay: Adenosine receptor TR-FRET binding assay (A2b); conditions: TR-FRET, inhibition of binding of 30 nM CA200645, CHO cell membranes
Sequence of human Adenosine A2b receptor (P29275 whole entry): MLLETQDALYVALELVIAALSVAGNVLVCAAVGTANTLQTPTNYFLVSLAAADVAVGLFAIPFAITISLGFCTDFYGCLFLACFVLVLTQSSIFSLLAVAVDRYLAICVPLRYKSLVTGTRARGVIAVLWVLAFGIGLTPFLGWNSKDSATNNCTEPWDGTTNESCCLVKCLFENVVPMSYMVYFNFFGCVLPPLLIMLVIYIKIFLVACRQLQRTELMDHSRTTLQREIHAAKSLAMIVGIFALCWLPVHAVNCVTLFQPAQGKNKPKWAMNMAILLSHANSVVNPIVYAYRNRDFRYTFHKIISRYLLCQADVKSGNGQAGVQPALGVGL
Procedure, shortened: as §1

[4] = target: human Adenosine A1 receptor (Homo sapiens (Human), UniProt P30542); assay: Adenosine receptor TR-FRET binding assay (A1); conditions: inhibition of binding of 100 nM CA200645, CHO cell membranes
Sequence of human Adenosine A1 receptor (P30542 whole entry): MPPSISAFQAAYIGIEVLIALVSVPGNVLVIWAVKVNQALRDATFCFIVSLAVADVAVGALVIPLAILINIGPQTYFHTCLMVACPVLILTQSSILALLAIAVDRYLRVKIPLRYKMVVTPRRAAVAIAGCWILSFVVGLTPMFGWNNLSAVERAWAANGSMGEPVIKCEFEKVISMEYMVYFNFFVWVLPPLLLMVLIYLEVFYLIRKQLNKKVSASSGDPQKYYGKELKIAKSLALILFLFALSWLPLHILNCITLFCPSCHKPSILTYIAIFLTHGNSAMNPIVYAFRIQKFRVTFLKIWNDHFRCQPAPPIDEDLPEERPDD
Procedure, shortened: as §1

human PBMCs = assay: CD3/CD28 stimulated IL-2 release NECA reversal assay in human PBMCs; assay type: cell-based; conditions: PBMC, 1 uM NECA, 24 hours, IL-2 in culture supernatant
Method: Biological Example—CD3/CD28 Stimulated IL-2 Release NECA Reversal Assay in Human PBMCs
Blood is drawn from healthy volunteers using sodium citrate as the anticoagulant (0.3% final concentration). After centrifugation of the blood over Histopaque-1077, PBMCs are collected from the Histopaque/plasma interface and washed twice in PBS (300 g for 10 mins at room temp). Cells are plated at 50,000 cells/well in 150 μl RPMI/10% FCS in 96-well cell culture plates that have been precoated with 1 ug/ml CD3 antibody. 50 μl diluted compound mix is added to the cells, to obtain final concentrations of 1 ug/ml CD28 antibody, 1 uM NECA and 0.003-10 μM adenosine receptor antagonist. Assay plates are incubated for 24 hours at 37° C. in a humidified incubator. Culture supernatant is tested for IL-2 levels using the human IL-2 Tissue Culture Kit (Meso Scale Discovery). Data for dose-response curves is calculated as % inhibition with 100% inhibition defined from no agonist control wells (+CD3/28-NECA)

[5] = target: human Adenosine A3 receptor (Homo sapiens (Human), UniProt P0DMS8); assay: Adenosine receptor TR-FRET binding assay (A3); conditions: inhibition of binding of 100 nM CA200645, CHO cell membranes
Sequence of human Adenosine A3 receptor (P0DMS8 whole entry): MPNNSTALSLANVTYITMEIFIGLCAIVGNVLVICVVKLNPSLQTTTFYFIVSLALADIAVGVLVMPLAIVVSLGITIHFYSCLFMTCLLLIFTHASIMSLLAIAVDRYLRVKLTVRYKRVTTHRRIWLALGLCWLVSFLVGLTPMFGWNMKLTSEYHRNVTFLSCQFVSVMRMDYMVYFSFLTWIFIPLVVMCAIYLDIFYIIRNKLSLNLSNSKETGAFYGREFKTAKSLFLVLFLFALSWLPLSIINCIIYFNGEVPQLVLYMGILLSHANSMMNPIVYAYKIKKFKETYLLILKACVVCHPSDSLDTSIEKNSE
Procedure, shortened: as §1

Sequence of human Adenosine A2a receptor (P29274 whole entry): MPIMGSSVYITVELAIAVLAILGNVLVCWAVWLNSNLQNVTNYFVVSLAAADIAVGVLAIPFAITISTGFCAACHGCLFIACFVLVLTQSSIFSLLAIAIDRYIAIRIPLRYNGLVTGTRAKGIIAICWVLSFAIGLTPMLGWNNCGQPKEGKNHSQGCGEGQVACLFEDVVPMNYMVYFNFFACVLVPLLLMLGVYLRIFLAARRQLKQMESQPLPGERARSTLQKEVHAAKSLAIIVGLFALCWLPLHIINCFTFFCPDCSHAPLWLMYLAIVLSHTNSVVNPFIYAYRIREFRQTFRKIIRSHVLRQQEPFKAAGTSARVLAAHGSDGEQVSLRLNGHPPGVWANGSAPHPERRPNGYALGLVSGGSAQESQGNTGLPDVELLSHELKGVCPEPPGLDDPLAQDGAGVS

| SMILES | Ki [1] | IC50 [2] | Ki [3] | Ki [4] | Ki [5] | IC50 (human PBMCs) |
| --- | --- | --- | --- | --- | --- | --- |
| Cc1cc(-c2sc(NC(=O)N3CC4(COC4)C3)nc2-c2cccc(C#N)c2)cc([C@@H](C)O)n1 (single isomer, unassigned) [Example 12.3b, N-[4-(3-Cyanophenyl)-5-[2-[(1R)-1-hydroxyethyl]-6-methyl-4-pyridyl]thiazol-2-yl]-2-oxa-6-azaspiro[3.3]heptane-6-carboxamide or N-[4-(3-cyanophenyl)-5-[2-[(1S)-1-hydroxyethyl]-6-methyl-4-pyridyl]thiazol-2-yl]-2-oxa-6-azaspiro[3.3]heptane-6-carboxamide] | 0.42 nM | 10 nM | 1.2 nM | 19 nM |  |  |
| Cc1cc(-c2sc(NC(=O)N3CCC4(CC3)CNC(=O)N4C)nc2-c2cccc(C#N)c2)cc(C)n1 [Example 6.51, N-[4-(3-Cyanophenyl)-5-(2,6-dimethyl-4-pyridyl)thiazol-2-yl]-1-methyl-2-oxo-1,3,8-triazaspiro[4.5]decane-8-carboxamide] |  | 320 nM |  |  |  | 6.1 nM |
| Cc1cc(-c2sc(NC(=O)N3CC4(CCOCC4)C3)nc2-c2cccc(C#N)c2)cc(C)n1 [Example 6.54, N-[4-(3-Cyanophenyl)-5-(2,6-dimethyl-4-pyridyl)thiazol-2-yl]-7-oxa-2-azaspiro[3.5]nonane-2-carboxamide] |  | 140 nM |  |  |  | 3.3 nM |
| Cc1cc(-c2sc(NC(=O)N3CC4(CNC(=O)C4)C3)nc2-c2cccc(C#N)c2)cc(C)n1 [Example 6.55, N-[4-(3-Cyanophenyl)-5-(2,6-dimethyl-4-pyridyl)thiazol-2-yl]-6-oxo-2,7-diazaspiro[3.4]octane-2-carboxamide] |  | 10 nM |  |  |  | 2.2 nM |
| Cc1cc(-c2sc(NC(=O)N3CC4(CNC(=O)N4)C3)nc2-c2cccc(C#N)c2)cc(C)n1 [Example 6.57, N-[4-(3-Cyanophenyl)-5-(2,6-dimethyl-4-pyridyl)thiazol-2-yl]-6-oxo-2,5,7-triazaspiro[3.4]octane-2-carboxamide] |  | 60 nM |  |  |  | 2.6 nM |
| Cc1cc(-c2sc(NC(=O)N3CCC4(CCCC(=O)N4)CC3)nc2-c2cccc(C#N)c2)cc(C)n1 [Example 6.58, N-[4-(3-Cyanophenyl)-5-(2,6-dimethyl-4-pyridyl)thiazol-2-yl]-2-oxo-1,9-diazaspiro[5.5]undecane-9-carboxamide] |  | 360 nM |  |  |  | 8.5 nM |
| Cc1cc(-c2sc(NC(=O)N3CCC(C)(C#N)CC3)nc2-c2cccc(C#N)c2)c(F)c(C)n1 [Example 6.66, 4-Cyano-N-[4-(3-cyanophenyl)-5-(3-fluoro-2,6-dimethyl-4-pyridyl)thiazol-2-yl]-4-methyl-piperidine-1-carboxamide] |  | 300 nM |  |  |  | 4.3 nM |
| Cc1cc(-c2sc(NC(=O)N3CCC(C)(O)CC3)nc2-c2cccc(C#N)c2)cc(C)n1 [Example 6.96, N-[4-(3-Cyanophenyl)-5-(2,6-dimethyl-4-pyridyl)thiazol-2-yl]-4-hydroxy-4-methyl-piperidine-1-carboxamide] | 0.53 nM | 30 nM | 1.8 nM | 10 nM | 502 nM |  |
| Cc1cc(-c2sc(NC(=O)N3CC4CCC(C3)N4)nc2-c2cccc(C#N)c2)cc(C)n1 [Example 13.11, N-[4-(3-Cyanophenyl)-5-(2,6-dimethyl-4-pyridyl)thiazol-2-yl]-3,8-diazabicyclo[3.2.1]octane-3-carboxamide] | 12.9 nM |  | 58.4 nM | 132 nM | 226 nM |  |
| Cc1cc(-c2sc(NC(=O)N3CCN[C@H](C)C3)nc2-c2cccc(C#N)c2)cc(C(F)(F)F)n1 [Example 14, (3R)—N-[4-(3-Cyanophenyl)-5-[2-methyl-6-(trifluoromethyl)-4-pyridyl]thiazol-2-yl]-3-methyl-piperazine-1-carboxamide] | 2.71 nM |  | 7.4 nM | 45 nM | 47 nM |  |
| COc1cc(-c2sc(NC(=O)N3CCS(=N)(=O)CC3)nc2-c2cccc(C#N)c2)cc(C)n1 [Example 16, N-[4-(3-Cyanophenyl)-5-(2-methoxy-6-methyl-4-pyridyl)thiazol-2-yl]-1-imino-1-oxo-1,4-thiazinane-4-carboxamide] | 2.71 nM |  | 2.4 nM | 55 nM | 334 nM |  |
| CC(=O)Nc1cc(-c2sc(NC(=O)N3CC4(COC4)C3)nc2-c2cccc(C#N)c2)cc(C)n1 [Example 19, N-[5-(2-Acetamido-6-methyl-4-pyridyl)-4-(3-cyanophenyl)thiazol-2-yl]-2-oxa-6-azaspiro[3.3]heptane-6-carboxamide] | 1.86 nM | 290 nM | 7.9 nM | 137 nM |  |  |
| CC(=O)NCc1cc(-c2sc(NC(=O)N3CC4(COC4)C3)nc2-c2cccc(C#N)c2)cc(C)n1 [Example 20, N-[5-[2-(Acetamidomethyl)-6-methyl-4-pyridyl]-4-(3-cyanophenyl)thiazol-2-yl]-2-oxa-6-azaspiro[3.3]heptane-6-carboxamide] | 6.85 nM |  | 39.1 nM | 133 nM | 2540 nM |  |
| COC(C)c1cc(-c2sc(NC(=O)N3CC4(COC4)C3)nc2-c2cccc(C#N)c2)cc(C)n1 (centres unmarked) [Example 22, N-[4-(3-Cyanophenyl)-5-[2-(1-methoxyethyl)-6-methyl-4-pyridyl]thiazol-2-yl]-2-oxa-6-azaspiro[3.3]heptane-6-carboxamide] | 0.2 nM |  | 3.2 nM | 7 nM | 2060 nM |  |

Further lines, with some results ahead:

| Ki [1] | IC50 [2] | Ki [3] | Ki [4] | Ki [5] | SMILES | IC50 (human PBMCs) |
| --- | --- | --- | --- | --- | --- | --- |
| 4.56 nM |  | 14.5 nM | 61 nM | 573 nM | Cc1cc(-c2sc(NC(=O)N3CCN[C@H](C(F)(F)F)C3)nc2-c2cccc(C#N)c2)cc(C)n1 [Example 13.10, (3S)-N-[4-(3-Cyanophenyl)-5-(2,6-dimethyl-4-pyridyl)thiazol-2-yl]-3-(trifluoromethyl)piperazine-1-carboxamide] |  |
| 0.48 nM | 110 nM | 8 nM | 19 nM | 871 nM | Cc1cc(-c2sc(NC(=O)N3CCN[C@@H](C(F)(F)F)C3)nc2-c2cccc(C#N)c2)cc(C)n1 [Example 13.13, (3R)-N-[4-(3-Cyanophenyl)-5-(2,6-dimethyl-4-pyridyl)thiazol-2-yl]-3-(trifluoromethyl)piperazine-1-carboxamide] |  |
| 0.38 nM |  | 1.4 nM | 16 nM | 135 nM | Cc1cc(-c2sc(NC(=O)N3CC[S+]([O-])CC3)nc2-c2cccc(C#N)c2)cc(C(F)(F)F)n1 [Example 16.2] |  |
| 5.71 nM |  | 6.2 nM | 82 nM | 383 nM | COc1cc(-c2sc(NC(=O)N3CC[S+]([O-])CC3)nc2-c2cccc(C#N)c2)cc(C)n1 [Example 16.3] |  |
| 11.9 nM |  | 19.9 nM | 87 nM | 325 nM | Cc1cc(-c2sc(NC(=O)N3CC[S+]([O-])CC3)nc2-c2cccc(C#N)c2)cc(C#N)n1 [Example 16.5] |  |
| 0.13 nM |  | 1.1 nM | 6 nM | 537 nM | Cc1cc(-c2sc(NC(=O)N3CC4(COC4)C3)nc2-c2cccc(C#N)c2)cc(C(C)C)n1 [Example 16.8] |  |
| 0.57 nM |  | 1.7 nM | 43 nM | 254 nM | N#Cc1cccc(-c2nc(NC(=O)N3CC4(COC4)C3)sc2-c2cc(Cl)nc(Cl)c2)c1 [Example 16.10] |  |
